Measurements published in US7741359B2, “Hydrogen sulfide derivatives of non-steroidal anti-inflammatory drugs” (Antibe Therapeutics Inc., priority 2006, dated 2010).
Entries after “also recorded” stand apart in the source; their conditions may differ.

Assays:
[1] = Incidence of gastric damage at the end of the leukocyte adherence experiment; conditions: for Percent Incidence of Gastric Damage: end of experiment
Procedure: Briefly, post-capillary mesenteric venules in anesthetized rats are examined under a light microscope. […] All test compounds were prepared in a vehicle of 1% carboxymethylcellulose. Changes in leukocyte adherence within the venule were recorded with a video camera attached to the microscope, and quantification of the numbers of adherent leukocytes was performed in a blind manner through evaluation of the videotaped images. Each group consisted of 5 male, Wistar rats weighing 150-175 g. A leukocyte was considered “adherent” if it remained stationary for 30 seconds or more (results below are expressed as the mean ± SEM). At the end of the experiment the stomach was opened and examined for the presence of gastric damage, under a dissecting microscope.

[2] = test system: leukocyte adherence to the vascular endothelium; assay: Leukocyte adherence to the vascular endothelium, intravital microscopy of mesenteric venules; conditions: for Number of Adherent Leukocytes: mean ± SEM
Procedure: Briefly, post-capillary mesenteric venules in anesthetized rats are examined under a light microscope. […] All test compounds were prepared in a vehicle of 1% carboxymethylcellulose. Changes in leukocyte adherence within the venule were recorded with a video camera attached to the microscope, and quantification of the numbers of adherent leukocytes was performed in a blind manner through evaluation of the videotaped images. Each group consisted of 5 male, Wistar rats weighing 150-175 g. A leukocyte was considered “adherent” if it remained stationary for 30 seconds or more (results below are expressed as the mean ± SEM).

COX-2 = target: T1, COX-2 (Rattus norvegicus, UniProt P35355); assay: Rat airpouch assay, exudate PGE2 after zymosan (inhibition of COX-2 in vivo); conditions: 60 μmol/kg; FIG. 11
T1 construct: from tissue; host or cells: rat subcutaneous airpouch (in vivo, zymosan-induced inflammation)
T1 sequence (P35355 18-604): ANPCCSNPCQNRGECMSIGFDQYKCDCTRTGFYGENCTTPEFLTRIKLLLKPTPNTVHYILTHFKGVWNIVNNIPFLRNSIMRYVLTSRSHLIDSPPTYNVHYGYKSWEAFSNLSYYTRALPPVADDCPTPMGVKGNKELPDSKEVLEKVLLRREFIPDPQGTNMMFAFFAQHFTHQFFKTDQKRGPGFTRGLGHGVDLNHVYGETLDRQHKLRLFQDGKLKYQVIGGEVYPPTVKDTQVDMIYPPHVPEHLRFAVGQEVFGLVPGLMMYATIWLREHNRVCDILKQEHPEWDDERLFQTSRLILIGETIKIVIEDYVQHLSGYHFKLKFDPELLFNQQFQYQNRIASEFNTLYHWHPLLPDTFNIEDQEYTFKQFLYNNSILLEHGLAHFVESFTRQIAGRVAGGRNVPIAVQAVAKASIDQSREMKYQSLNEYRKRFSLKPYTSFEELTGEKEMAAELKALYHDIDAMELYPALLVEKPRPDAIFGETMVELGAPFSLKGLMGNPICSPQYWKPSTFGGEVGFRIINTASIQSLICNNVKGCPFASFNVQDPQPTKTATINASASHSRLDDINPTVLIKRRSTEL
Procedure: Briefly, a subcutaneous “pouch” is created by repeated injections of air over several days. Once established, inflammation in the pouch can be induced by injection of 1 mL of 1% zymosan. […] Another group of 5 rats was treated with the vehicle, but received an injection of 0.9% sterile saline into the pouch rather than zymosan. […]
Each group consisted of 5 rats.

[3] = Healing of acetic acid-induced gastric ulcers; assay type: in vivo, rat; conditions: starting 3 days after ulcer induction, FIG. 13
Procedure: Gastric ulcers were induced via serosal application of acetic acid, as described by Elliott et al., A nitric oxide-releasing nonsteroidal anti-inflammatory drug accelerates gastric ulcer healing in rats. Gastroenterology 1995; 109: 524-530. […] After 4 days of such treatment, the rats were euthanized and the stomach was excised and photographed. The area (in mm^2) of the ulcer was determined planimetrically by an individual unaware of the treatments given to the rats. In a subgroup of 5 rats euthanized 3 days after induction of gastric ulcers (i.e., prior to initiation of drug treatment), the mean surface area of the ulcers was 24±2 mm^2.

COX-1 = target: T2, COX-1 (Rattus norvegicus, UniProt Q63921); assay: Whole blood thromboxane B2 synthesis of treated rats (inhibition of COX-1); assay type: in vivo; conditions: for COX-1 activity (whole blood thromboxane B2 synthesis): oral 60 μmol/kg, FIG. 4
T2 construct: whole blood thromboxane synthesis, which occurs via COX-1; from tissue; host or cells: rat whole blood (ex vivo clotting after oral dosing)
T2 sequence (Q63921 27-602): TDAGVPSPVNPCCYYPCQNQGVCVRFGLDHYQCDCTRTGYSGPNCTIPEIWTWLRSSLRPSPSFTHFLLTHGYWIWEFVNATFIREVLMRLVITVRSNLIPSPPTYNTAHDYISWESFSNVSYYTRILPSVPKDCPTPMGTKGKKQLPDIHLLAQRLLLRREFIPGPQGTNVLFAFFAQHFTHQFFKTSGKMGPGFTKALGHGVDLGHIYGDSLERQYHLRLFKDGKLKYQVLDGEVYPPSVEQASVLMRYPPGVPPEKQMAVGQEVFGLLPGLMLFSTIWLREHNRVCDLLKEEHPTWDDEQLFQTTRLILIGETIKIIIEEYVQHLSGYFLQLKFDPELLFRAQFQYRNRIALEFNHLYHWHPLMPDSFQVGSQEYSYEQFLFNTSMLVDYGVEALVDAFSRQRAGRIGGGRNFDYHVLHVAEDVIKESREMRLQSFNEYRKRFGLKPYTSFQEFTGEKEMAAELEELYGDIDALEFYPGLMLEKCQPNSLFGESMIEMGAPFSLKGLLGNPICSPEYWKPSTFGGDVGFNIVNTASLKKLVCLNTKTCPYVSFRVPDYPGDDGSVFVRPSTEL
Procedure: Inhibition of COX-1 was also measured using the same rats. […] The samples were then centrifuged for 3 min at 9,000 g and the supernatant was frozen at −80° C. for subsequent measurement of thromboxane B2 concentrations using a specific ELISA.
Inhibition of COX-1 was also measured using the same rats, using the same method as described for FIG. 4. […]

[4] = Carrageenan hindpaw edema model; assay type: in vivo, rat; conditions: oral, dose equimolar to diclofenac at 3 mg/kg, 30 min prior to carrageenan, compared with diclofenac, FIGS. 9, 10
Procedure: Male, Wistar rats weighing 175-200 g were given the test compounds orally 30 min prior to subplantar injection of 100 ul of 1% lambda carrageenan. Paw volume measured using an Ugo Basile hydroplethysmometer prior to carrageenan injection and at 1-h intervals thereafter for 5 h.

[5] = Gastric damage (gastric damage score) in rats after oral dosing; conditions: for gastric damage: oral 60 μmol/kg, evaluated 3 hours later, FIG. 3
[6] = 60 μmol/kg twice-daily orally for 4 days

| Compound | percent incidence of gastric damage compared to the parent NSAID alone ([1]; intragastric 30 μmol/kg) | Percent Incidence of Gastric Damage ([1]; intragastric 30 μmol/kg) [%] | number of adherent leukocytes compared to the parent NSAID alone ([2]; intragastric 30 μmol/kg) | Number of Adherent Leukocytes ([2]; intragastric 30 μmol/kg) [per 100 μm vessel length] | further results |
| --- | --- | --- | --- | --- | --- |
| Cc1ccc(Nc2c(F)cccc2Cl)c(CC(=O)Oc2ccc(C(N)=S)cc2)c1 [Compound XVIII, 4-thiocarbamoylphenyl 2-(2-(2-chloro-6-fluorophenylamino)-5-methylphenyl)acetate] | still showed no incidences of gastric damage | 0 | significantly reduced the number of adherent leukocytes per 100 μm vessel length when compared to lumiracoxib alone | 2.3 ± 0.4 |  |
| COc1ccc2cc([C@H](C)C(=O)O)ccc2c1 [Naproxen, naproxen, reference compound] |  |  |  |  | COX-2 activity (exudate PGE2) (COX-2): significantly suppressed COX-2 activity as compared to the group treated with vehicle; gastric ulcer healing (ulcer area) [3, 6]: exhibited similar degrees of healing; Percent Incidence of Gastric Damage ([1]; intragastric 60 μmol/kg): 100%; Number of Adherent Leukocytes ([2]; intragastric 60 μmol/kg): 10.2 ± 0.4 per 100 μm vessel length |
| NC(=S)c1ccc(OC(=O)Cc2ccccc2Nc2c(Cl)cccc2Cl)cc1 [Compound XVII, [2-(2,6-dichloro-phenylamino)-phenyl]-acetic acid 4-thiocarbamoyl-phenyl ester] | significantly reduced the percent incidence of gastric damage when compared to diclofenac alone | 20 | significantly reduced the number of adherent leukocytes per 100 μm vessel length | 2.8 ± 0.5 | inhibition at 4.1 mg/kg (COX-1; rat, po, read-out: inhibition of whole blood thromboxane synthesis (COX-1)): > 80%; paw edema (paw volume increase) [4]: reduced paw edema to a greater extent; paw edema (paw volume increase) ([4]; 3 mg/kg): comparable to the effect of diclofenac at a dose of 10 mg/kg; gastric ulcer healing (ulcer area) ([3]; 30 μmol/kg twice-daily orally for 4 days): exhibited significantly greater healing; gastric damage score ([5]; rats fasted 18 h, oral, doses equimolar to diclofenac 20 mg/kg, 3 h after administration, FIG. 1): no gastric damage was seen; also recorded: elicited significantly less gastric damage than diclofenac |
| COc1ccc2cc(C(C)C(=O)Oc3ccc(C(N)=S)cc3)ccc2c1 (stereo not drawn) [Compound XX, 2-(6-Methoxy-naphthalen-2-yl)-propionic acid 4-thiocarbamyl-phenyl ester] |  |  |  |  | COX-1 activity (whole blood thromboxane B2 synthesis) (COX-1): significantly (*p<0.05) inhibited COX-1 activity as compared to the vehicle-treated group; also recorded: significantly better at inhibiting thromboxane B2 synthesis than the ADT-OH equivalent, Compound V; gastric ulcer healing (ulcer area) [3, 6]: exhibited significantly greater healing; gastric damage [5]: not detectable; also recorded: elicited significantly less damage than naproxen itself |
| O=C(Cc1ccccc1Nc1c(F)cccc1Cl)Oc1ccc(-c2cc(=S)ss2)cc1 [Compound III, [2-(2-chloro-6-fluorophenylamino)-phenyl]-acetic acid 4-(5-thioxo-5H-[1,2]dithiol-3-yl)-phenyl ester] | still showed no incidences of gastric damage | 0 | significantly reduced the number of adherent leukocytes per 100 μm vessel length when compared to lumiracoxib alone | 1.7 ± 0.3 |  |
| CC(=O)Oc1ccccc1C(=O)Oc1ccc(-c2cc(=S)ss2)cc1 [Compound I, 4-(5-thioxo-5H-1,2-dithiol-3-yl)phenyl 2-acetoxybenzoate] | significantly reduced the percent incidence of gastric damage when compared to aspirin alone | 20 | significantly reduced the number of adherent leukocytes per 100 μm vessel length when compared to aspirin alone | 2.5 ± 0.3 |  |
| CC(=O)Oc1ccccc1C(=O)Oc1ccc(C(N)=S)cc1 [Compound XVI, 2-Acetoxy-benzoic acid 4-thiocarbamoyl-phenyl ester] | significantly reduced the percent incidence of gastric damage when compared to aspirin alone | 0 | significantly reduced the number of adherent leukocytes per 100 μm vessel length when compared to aspirin alone | 2.3 ± 0.3 |  |
| COc1ccc2cc(C(C)C(=O)Oc3ccc(-c4cc(=S)ss4)cc3)ccc2c1 (stereo not drawn) [Compound V, 2-(6-Methoxy-naphthale-2-yl)-propionic acid 4-(5-thioxo-5-H-[1,2]dithiol-3-yl)-phenyl ester] |  |  |  |  | COX-1 activity (whole blood thromboxane B2 synthesis) (COX-1): significantly (*p<0.05) inhibited COX-1 activity as compared to the vehicle-treated group; also recorded: somewhat less with Compound V than with naproxen or Compound XX; COX-2 activity (exudate PGE2) (COX-2): significantly suppressed COX-2 activity as compared to the group treated with vehicle; gastric damage [5]: not detectable; also recorded: elicited significantly less damage than naproxen itself; percent incidence of gastric damage compared to the parent NSAID alone ([1]; intragastric 60 μmol/kg): significantly reduced the percent incidence of gastric damage when compared to naproxen alone; Percent Incidence of Gastric Damage ([1]; intragastric 60 μmol/kg): 0%; number of adherent leukocytes compared to the parent NSAID alone ([2]; intragastric 60 μmol/kg): significantly reduced the number of adherent leukocytes per 100 μm vessel length; Number of Adherent Leukocytes ([2]; intragastric 60 μmol/kg): 3.5 ± 0.7 per 100 μm vessel length |
